Test results: ChEMBL document CHEMBL4421723, “Novel drug targets to overcome de novo drug-resistance in multiple myeloma” (2013)
Active and inactive are the calls of the source. No cut-off for these calls is given here.

Key:
[1] = biological target: DNA topoisomerase 2-alpha (Homo sapiens) (UniProt P11388); experiment: Binding affinity to nuclear export signal of topoisomerase 2alpha in human KG1a cells assessed as potentiation of doxorubicin-induced apoptosis by measuring increase in cleaved caspase-3 levels at 25 uM pre-incubated for 20 hrs followed by addition of doxorubicin for 4 hrs; type: cell-based
Sequence of DNA topoisomerase 2-alpha (Homo sapiens) (P11388 whole entry): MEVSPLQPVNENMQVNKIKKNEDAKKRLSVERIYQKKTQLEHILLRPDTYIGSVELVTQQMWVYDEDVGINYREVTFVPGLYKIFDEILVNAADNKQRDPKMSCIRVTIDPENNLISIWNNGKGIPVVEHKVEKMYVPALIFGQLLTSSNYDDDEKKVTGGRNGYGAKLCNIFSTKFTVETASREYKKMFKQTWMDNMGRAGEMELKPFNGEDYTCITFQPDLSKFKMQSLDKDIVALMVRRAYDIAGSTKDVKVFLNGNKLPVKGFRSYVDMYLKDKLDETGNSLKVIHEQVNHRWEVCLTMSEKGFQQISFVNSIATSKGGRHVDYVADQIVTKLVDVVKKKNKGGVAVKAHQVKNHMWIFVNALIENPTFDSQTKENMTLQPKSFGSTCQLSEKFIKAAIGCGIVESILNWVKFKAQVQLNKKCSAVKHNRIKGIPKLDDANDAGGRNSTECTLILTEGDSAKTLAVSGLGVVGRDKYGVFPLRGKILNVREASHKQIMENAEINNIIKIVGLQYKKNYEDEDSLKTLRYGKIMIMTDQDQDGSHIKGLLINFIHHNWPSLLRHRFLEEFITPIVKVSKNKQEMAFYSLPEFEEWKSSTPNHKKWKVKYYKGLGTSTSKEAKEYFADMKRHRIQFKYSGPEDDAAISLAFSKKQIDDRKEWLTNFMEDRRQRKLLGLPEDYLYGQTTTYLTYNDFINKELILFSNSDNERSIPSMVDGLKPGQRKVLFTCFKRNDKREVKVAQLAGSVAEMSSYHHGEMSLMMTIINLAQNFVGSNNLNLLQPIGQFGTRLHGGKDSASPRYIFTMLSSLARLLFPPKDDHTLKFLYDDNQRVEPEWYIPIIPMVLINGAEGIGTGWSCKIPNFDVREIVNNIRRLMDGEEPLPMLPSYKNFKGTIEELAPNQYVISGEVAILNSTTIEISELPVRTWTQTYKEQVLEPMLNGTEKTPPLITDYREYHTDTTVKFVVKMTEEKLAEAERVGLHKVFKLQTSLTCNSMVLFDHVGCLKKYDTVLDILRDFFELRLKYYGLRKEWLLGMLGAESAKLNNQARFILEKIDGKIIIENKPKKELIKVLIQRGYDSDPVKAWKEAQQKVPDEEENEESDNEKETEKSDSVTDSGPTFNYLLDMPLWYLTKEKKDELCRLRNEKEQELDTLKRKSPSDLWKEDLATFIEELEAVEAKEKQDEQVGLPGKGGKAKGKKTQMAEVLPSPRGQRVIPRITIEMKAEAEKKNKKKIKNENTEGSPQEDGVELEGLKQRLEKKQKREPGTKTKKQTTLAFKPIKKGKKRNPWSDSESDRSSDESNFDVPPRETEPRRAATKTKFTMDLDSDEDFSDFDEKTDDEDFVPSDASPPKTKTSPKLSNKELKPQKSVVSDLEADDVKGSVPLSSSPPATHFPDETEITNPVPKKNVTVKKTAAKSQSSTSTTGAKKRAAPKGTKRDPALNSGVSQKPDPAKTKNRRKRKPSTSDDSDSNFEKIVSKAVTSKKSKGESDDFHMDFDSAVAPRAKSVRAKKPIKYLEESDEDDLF

[2] = biological target: DNA topoisomerase 2-alpha (Homo sapiens) (UniProt P11388); experiment: Binding affinity to nuclear export signal of topoisomerase 2alpha in human PBMC cells assessed as potentiation of doxorubicin-induced apoptosis by measuring increase in cleaved caspase-3 levels at 25 uM pre-incubated for 20 hrs followed by addition of doxorubicin for 4 hrs; type: cell-based
[3] = biological target: Cellular tumor antigen p53 (Homo sapiens) (UniProt P04637); experiment: Inhibition of p53 nuclear export in human NCI-H929 cells at 25 uM incubated for 20 hrs by Western blot analysis; type: cell-based
Sequence of Cellular tumor antigen p53 (Homo sapiens) (P04637 whole entry, looked up): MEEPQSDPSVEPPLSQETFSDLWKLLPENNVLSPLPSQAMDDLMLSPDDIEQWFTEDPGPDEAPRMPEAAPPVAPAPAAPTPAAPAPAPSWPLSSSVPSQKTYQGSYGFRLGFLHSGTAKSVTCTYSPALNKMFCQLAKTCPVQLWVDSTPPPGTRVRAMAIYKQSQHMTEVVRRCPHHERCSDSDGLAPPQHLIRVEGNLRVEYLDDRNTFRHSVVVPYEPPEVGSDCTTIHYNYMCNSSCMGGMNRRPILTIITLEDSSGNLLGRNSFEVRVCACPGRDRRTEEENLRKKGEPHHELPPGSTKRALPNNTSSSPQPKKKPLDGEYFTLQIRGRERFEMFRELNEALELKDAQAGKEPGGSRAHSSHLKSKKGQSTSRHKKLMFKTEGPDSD

[4] = system: U-266; experiment: Induction of apoptosis in human U266 cells assessed as increase in cleaved caspase-3 levels at 25 uM incubated for 20 hrs; type: functional, cell-based
[5] = biological target: DNA topoisomerase 2-alpha (Homo sapiens) (UniProt P11388); experiment: Binding affinity to nuclear export signal of topoisomerase 2alpha in human U266 cells assessed as potentiation of doxorubicin-induced apoptosis by measuring increase in cleaved caspase-3 levels at 25 uM pre-incubated for 20 hrs followed by addition of doxorubicin for 4 hrs; type: cell-based
[6] = biological target: DNA topoisomerase 2-alpha (Homo sapiens) (UniProt P11388); experiment: Binding affinity to nuclear export signal of topoisomerase 2alpha in human Flow 2000 cells assessed as potentiation of doxorubicin-induced apoptosis by measuring increase in cleaved caspase-3 levels at 25 uM pre-incubated for 20 hrs followed by addition of doxorubicin for 4 hrs; type: cell-based
[7] = biological target: DNA topoisomerase 2-alpha (Homo sapiens) (UniProt P11388); experiment: Inhibition of nuclear export signal of topoisomerase 2alpha in human NCI-H929 cells assessed as increase in nuclear localization of Top2alpha at 50 uM incubated for 2 hrs by Western blot analysis; type: cell-based
[8] = system: NCI-H929; experiment: Induction of apoptosis in human NCI-H929 cells assessed as increase in cleaved caspase-3 levels at 25 uM incubated for 20 hrs; type: functional, cell-based
[9] = system: RPMI-8226; experiment: Induction of apoptosis in human RPMI8226 cells assessed as increase in cleaved caspase-3 levels at 25 uM incubated for 20 hrs; type: functional, cell-based
[10] = biological target: DNA topoisomerase 2-alpha (Homo sapiens) (UniProt P11388); experiment: Binding affinity to nuclear export signal of topoisomerase 2alpha in human WI38 cells assessed as potentiation of doxorubicin-induced apoptosis by measuring increase in cleaved caspase-3 levels at 25 uM pre-incubated for 20 hrs followed by addition of doxorubicin for 4 hrs; type: cell-based
[11] = biological target: DNA topoisomerase 2-alpha (Homo sapiens) (UniProt P11388); experiment: Binding affinity to nuclear export signal of topoisomerase 2alpha in human MCF7 cells assessed as potentiation of doxorubicin-induced apoptosis by measuring increase in cleaved caspase-3 levels at 25 uM pre-incubated for 20 hrs followed by addition of doxorubicin for 4 hrs; type: cell-based
[12] = system: RPMI-8226; experiment: Effect on Top2alpha protein levels in human RPMI8226 cells at 25 uM incubated for 20 hrs by Western blot analysis; type: cell-based; settings: rpmi-8226, 20 h
[13] = biological target: DNA topoisomerase 2-alpha (Homo sapiens) (UniProt P11388); experiment: Inhibition of nuclear export signal of topoisomerase 2alpha in human NCI-H929 cells assessed as reduction in Top2alpha binding to CRM1 at 25 uM incubated for 20 hrs by Western blot analysis and co-immunoprecipitation analysis; type: cell-based
[14] = biological target: DNA topoisomerase 2-alpha (Homo sapiens) (UniProt P11388); experiment: Inhibition of nuclear export signal of topoisomerase 2alpha in human NCI-H929 cells assessed as reduction in cytoplasmic localization of Top2alpha at 100 uM incubated for 24 hrs by Western blot analysis; type: cell-based
[15] = biological target: DNA topoisomerase 2-alpha (Homo sapiens) (UniProt P11388); experiment: Binding affinity to nuclear export signal of topoisomerase 2alpha in human HL60 cells assessed as potentiation of doxorubicin-induced apoptosis by measuring increase in cleaved caspase-3 levels at 25 uM pre-incubated for 20 hrs followed by addition of doxorubicin for 4 hrs; type: cell-based
[16] = biological target: DNA topoisomerase 2-alpha (Homo sapiens) (UniProt P11388); experiment: Binding affinity to nuclear export signal of topoisomerase 2alpha in human RPMI8226 cells assessed as potentiation of doxorubicin-induced apoptosis by measuring increase in cleaved caspase-3 levels at 25 uM pre-incubated for 20 hrs followed by addition of doxorubicin for 4 hrs; type: cell-based
[17] = biological target: DNA topoisomerase II (Homo sapiens) (UniProt P11388+Q02880); experiment: Inhibition of decatenation activity of human topoisomerase 2 using kinetoplast DNA up to 50 uM incubated for 30 mins by agarose gel electrophoresis; type: protein assay
[18] = biological target: DNA topoisomerase 2-alpha (Homo sapiens) (UniProt P11388); experiment: Binding affinity to nuclear export signal of topoisomerase 2alpha in human NCI-H929 cells assessed as potentiation of doxorubicin-induced apoptosis by measuring increase in cleaved caspase-3 levels at 25 uM pre-incubated for 20 hrs followed by addition of doxorubicin for 4 hrs; type: cell-based
[19] = biological target: Exportin-1 (Homo sapiens) (UniProt O14980); experiment: Inhibition of CRM1 in human NCI-H929 cells assessed as increase in nuclear localization of Top2alpha at 50 uM incubated for 2 hrs by Western blot analysis; type: cell-based
Sequence of Exportin-1 (Homo sapiens) (O14980 whole entry): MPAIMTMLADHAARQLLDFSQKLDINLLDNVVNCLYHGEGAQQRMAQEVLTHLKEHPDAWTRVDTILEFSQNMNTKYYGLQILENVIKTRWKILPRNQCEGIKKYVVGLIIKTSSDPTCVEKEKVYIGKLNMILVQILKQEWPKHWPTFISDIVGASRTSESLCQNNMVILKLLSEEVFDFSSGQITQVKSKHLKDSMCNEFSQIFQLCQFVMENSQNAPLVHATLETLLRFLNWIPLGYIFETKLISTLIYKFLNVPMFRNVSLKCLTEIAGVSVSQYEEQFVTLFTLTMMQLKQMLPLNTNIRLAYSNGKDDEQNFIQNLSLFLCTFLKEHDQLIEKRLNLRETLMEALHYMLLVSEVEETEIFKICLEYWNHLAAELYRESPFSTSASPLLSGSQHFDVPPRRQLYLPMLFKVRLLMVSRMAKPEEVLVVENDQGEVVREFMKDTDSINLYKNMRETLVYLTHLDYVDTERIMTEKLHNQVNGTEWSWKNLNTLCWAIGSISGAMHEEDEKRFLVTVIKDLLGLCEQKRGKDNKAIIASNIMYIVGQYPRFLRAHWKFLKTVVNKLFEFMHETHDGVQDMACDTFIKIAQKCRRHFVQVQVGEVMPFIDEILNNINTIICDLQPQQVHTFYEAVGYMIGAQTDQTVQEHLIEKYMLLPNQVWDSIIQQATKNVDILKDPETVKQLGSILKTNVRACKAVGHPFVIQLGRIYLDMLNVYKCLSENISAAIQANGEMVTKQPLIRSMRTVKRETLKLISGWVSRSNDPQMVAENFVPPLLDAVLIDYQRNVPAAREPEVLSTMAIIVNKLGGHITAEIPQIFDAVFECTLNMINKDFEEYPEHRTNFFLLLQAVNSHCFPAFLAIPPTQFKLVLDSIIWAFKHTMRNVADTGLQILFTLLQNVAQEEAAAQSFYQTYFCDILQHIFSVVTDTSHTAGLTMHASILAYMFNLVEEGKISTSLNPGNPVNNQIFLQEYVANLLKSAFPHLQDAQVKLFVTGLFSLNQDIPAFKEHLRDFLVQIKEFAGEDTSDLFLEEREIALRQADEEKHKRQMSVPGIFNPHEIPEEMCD

Row | Compound | inhibition [1] | inhibition [2] | inhibition [3] | Activity [4] | Activity [5] | inhibition [6] | inhibition [7] | Activity [8] | Activity [9] | inhibition [10] | inhibition [11] | Activity [12] | inhibition [13] | inhibition [14] | inhibition [15] | Activity [16] | inhibition [17] | Activity [18] | inhibition [19]
1 | O=C1c2ccccc2C(=O)C1C(=O)C(c1ccccc1)c1ccccc1 [DIPHENADIONE] | inactive | inactive | inactive | inactive | Active | inactive | Active | inactive | inactive | inactive | Active | Non-Toxic | Active | Active | inactive | Active | inactive | Active | 
2 | Brc1ccc(C[N+]23CN4CN(CN(C4)C2)C3)cc1 | inactive | inactive | Active | inactive | Active | inactive |  | inactive | inactive | inactive | Active | Non-Toxic |  | Active | inactive | Active | inactive | Active | 
3 | COCN1CCC2N(COC)CCC3N(COC)CCC1N23 (stereo unspecified) |  |  |  | inactive | Active |  |  | inactive | inactive |  |  |  |  |  |  | Active |  | Active | 
4 | O=C(Nc1ccc(C2=NCCN2)cc1)c1ccc(C(=O)Nc2ccc(C3=NCCN3)cc2)c([N+](=O)[O-])c1 | inactive | inactive | inactive | inactive | Active | inactive |  | inactive | inactive | inactive | Active | Non-Toxic |  | Active | inactive | Active | inactive | Active | 
5 | Clc1cc(Cl)c(C[N+]23CN4CN(CN(C4)C2)C3)cc1Cl | inactive | inactive | inactive | inactive | Active | inactive |  | inactive | inactive | inactive | Active | Non-Toxic |  | inactive | inactive | Active | inactive | Active | 
6 | C/C=C/[C@@H]1O[C@H]([C@H](O)/C=C/C=C/C[C@@H](C)/C=C(\C=C\[C@H]2CC=CC(=O)O2)CC)C[C@@H](O)[C@@H]1C |  |  |  |  |  |  |  |  |  |  |  |  |  |  |  |  |  |  | Active
7 | C1CN2C(=N1)N1CCN=C1N1CCN=C21 |  |  |  | inactive | Active |  |  | inactive | inactive |  |  |  |  |  |  | Active |  | Active | 
8 | c1ccc(C2NNC(c3ccccc3)NN2)cc1 (stereo unspecified) |  |  |  | inactive | Active |  |  | inactive | inactive |  |  |  |  |  |  | Active |  | Active | 
9 | O=C(C[N+]12CN3CN(CN(C3)C1)C2)c1ccc(Br)cc1 |  |  |  |  |  |  |  |  |  |  |  |  |  | inactive |  |  |  |  | 
